Patent US8691851B2, “Lanthanide metal complexes useful in treating cancer” (National University of Singapore, priority 2009, dated 2014)

Tests used:
Type in all cases: cell-based
LC3 II = LC3 II formation by Western blot; conditions: SHSY5Y cells, 5 or 10 mM 3MA for 2 hours, then 10 uM C19H24N3O5S5Pr for 7 hours
[1] = tested on: SHEP-1 and MDA-MB-231 cancer cells; experiment: Morphological changes of cancer cells; conditions: 10 mM 3MA, then 5 μM (SHEP-1) or 10 μM (MDA-MB-231) C19H24N3O5S5Pr
PPARγ = biological target: T1, PPARγ (Homo sapiens, UniProt P37231); parameters: endogenous in cells; host or cells: SHSY5Y, SHEP1 / SHEP-1 (neuroblastoma); conditions: SHSY5Y and SHEP1 cells in 10% serum, 0 to 10 μM, 18 hours
T1 sequence (P37231 1-505): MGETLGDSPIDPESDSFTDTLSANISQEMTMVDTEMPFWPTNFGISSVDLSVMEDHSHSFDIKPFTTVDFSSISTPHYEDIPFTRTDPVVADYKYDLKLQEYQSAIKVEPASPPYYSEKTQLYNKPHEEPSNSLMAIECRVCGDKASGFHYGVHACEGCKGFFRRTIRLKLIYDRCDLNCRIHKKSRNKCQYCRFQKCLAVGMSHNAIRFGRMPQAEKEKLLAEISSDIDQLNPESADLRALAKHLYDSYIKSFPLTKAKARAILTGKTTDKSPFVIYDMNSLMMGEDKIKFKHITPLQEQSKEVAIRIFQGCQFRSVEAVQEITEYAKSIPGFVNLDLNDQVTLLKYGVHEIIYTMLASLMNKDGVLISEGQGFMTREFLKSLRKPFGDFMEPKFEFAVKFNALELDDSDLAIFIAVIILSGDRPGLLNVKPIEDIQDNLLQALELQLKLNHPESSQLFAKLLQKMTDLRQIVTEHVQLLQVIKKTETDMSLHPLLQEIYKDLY
Protocol: To determine if C19H24N3O5S5Pr activates PPARγ, SHSY5Y and SHEP1 neuroblastoma cells were transiently co-transfected with a 3×PPRE luciferase plasmid and renilla plasmid for transfection efficiency. Forty eight hours following transfection, the cells were exposed to increased concentrations (0 to 10 μM) of 15d-PGJ2 and C19H24N3O5S5Pr for 18 hours. The fold increase in luciferase activity correlates with the PPARγ activity of the cell. PPARγ activity is determined by calculating the RLU/renilla/μg total protein.
To assess if C19H24N3O5S5Pr activation of PPARγ is dependent on expression of PPARγ neuroblastoma cells, neuroblastoma cells SHEP1 and SHSY5Y were transiently co-transfected with a 3×PPRE luciferase plasmid and renilla plasmid for transfection efficiency. Forty eight hours following transfection, cells were exposed to increased concentrations (0 to 20 μM) of C19H24N3O5S5Pr for 18 hours. PPARγ activity was calculated as luciferase RLU/renilla/μg total protein.

RhoB = RhoB induction after preincubation with PPAR-γ antagonist; conditions: SHEP-1 cells, 10 uM GW9662 for 2 hours, then 10 uM C19H24N3O5S5Pr for 4 hours
Protocol: SHEP-1 cancer cells were preincubated with 10 uM GW9662, a pharmacological PPAR-γ antagonist that was able to abrogate the induction of RhoB protein by C19H24N3O5S5Pr, or vehicle control for 2 hours before being exposed to 10 uM of C19H24N3O5S5Pr for 4 hours.

SMILES: Cn1cnc(N)c2ncnc1-2 [3MA, 3-methyl adenine, reference compound]
- LC3 II levels induced by C19H24N3O5S5Pr after 3MA preincubation (LC3 II): LC3 II levels were reduced
- cell morphology after 3MA preincubation followed by C19H24N3O5S5Pr [1]: did not demonstrate this death-like morphology

SMILES: CCCCC/C=C/C=C1/C(=O)C=CC1C/C=C\CCCC(=O)O (stereo not shown) [15dPGJ2, 15-deoxy-Delta-12,14, prostaglandin, reference compound]
- PPARγ activation (luciferase RLU/renilla/μg total protein) (PPARγ): did not display any PPARγ activation

SMILES: O=C(Nc1ccccc1)c1cc([N+](=O)[O-])ccc1Cl [GW9662]
- RhoB expression induced by C19H24N3O5S5Pr after antagonist preincubation (RhoB): RhoB was not expressed
